{
  "source": "paper PMC10461829",
  "about": "“NlpC/P60 peptidoglycan hydrolases of Trichomonas vaginalis have complementary activities that empower the protozoan to control host-protective lactobacilli” (PLOS Pathogens, 2023)",
  "target": "T1, TvNlpC_B3 (Trichomonas vaginalis, UniProt A2FQ38)",
  "T1 construct": "gene TVAG_042760; N-terminal His6-3C tag cleaved; E. coli BL21(DE3), pET47b; model Asn23-Tyr137; catalytic Cys53/His99/His111; no SH3 domain; E64 adduct 14,046 Da",
  "assay": "X-ray crystal structure of complex; mass spectrometry of covalent adduct",
  "format": "binding",
  "details": "covalent at Cys53 via C2; at least 5:1 molar ratio, 1 h, room temperature; only a 131 Da fragment of E64 modelled, intact adduct seen by mass spectrometry",
  "data": [
    {"compound": "CC(C)C[C@H](NC(=O)[C@H]1O[C@@H]1C(=O)O)C(=O)NCCCCNC(=N)N", "note": "[E64]", "values": [
      {"measurement": "X-ray crystal structure of complex; mass spectrometry of covalent adduct", "result": "The structure of TvNlpC_B3 bound to the inhibitor E64 was determined by molecular replacement"}
    ]}
  ]
}
